Converted amounts (≈) assume the structure as drawn.
Key:
[1] = Stress tests (high temperature, high humidity, high-light irradiation), related substances by HPLC; format: physicochemical; conditions: for purity after the high humidity test: high humidity (relative humidity 92.5%, 25° C.); for purity after the high temperature test: high temperature (60° C.); for purity after intense light / high-light irradiation test: high-light irradiation (illuminance 45001×+5001×)
Method: Treating the honokiol crystal forms A, B and C under high temperature (60° C.), high humidity (relative humidity 92.5%, 25° C.) and high-light irradiation (illuminance 45001×+5001×), respectively, diluting with methanol, and investigating the changes of related substances through testing with HPLC.

[2] = Solubility test in PBS (saturated solution, HPLC external standard); format: physicochemical; conditions: shaking at 37 °C for 4 h, supernatant by HPLC
Method: Since the solubility of the drug directly affects the dissolution and oral bioavailability of the drug preparation, the inventor investigated the solubility of the honokiol crystal forms A, B and C in PBS. Preparing respective saturated solutions of the honokiol crystal forms A, B and C, shaking at 37 °C for 4 h, and centrifuging and transferring the supernatant into a high performance liquid chromatograph. At the same time, preparing a standard solution of the honokiol (source: China Institutes for Food and Drug Control, Batch No.: 110730-201915, ID: EH2H-BMTW), and using the external standard method for quantification.

C=CCc1ccc(O)c(-c2ccc(O)c(CC=C)c2)c1 [honokiol crystal form A, 3′,5-di-2-propenyl-1,1′-biphenyl-2,4′-diphenol]
purity before the stress test [1]: 99.83% | purity after the high humidity test [1]: 99.67% | purity after the high temperature test [1]: 99.63% | purity after intense light / high-light irradiation test [1]: 99.64% | solubility [2]: 0.04135 mg/mL (≈ 155 µM)

C=CCc1ccc(O)c(-c2ccc(O)c(CC=C)c2)c1 [honokiol crystal form B, 3′,5-di-2-propenyl-1,1′-biphenyl-2,4′-diphenol]
purity before the stress test [1]: 99.88% | purity after the high humidity test [1]: 99.70% | purity after the high temperature test [1]: 99.70% | purity after intense light / high-light irradiation test [1]: 99.60% | solubility at 4 h ([2]; PBS, 37 °C, aqueous buffer, thermodynamic from solid): 0.0437 mg/mL (≈ 164 µM)

C=CCc1ccc(O)c(-c2ccc(O)c(CC=C)c2)c1 [honokiol crystal form C, 3′,5-di-2-propenyl-1,1′-biphenyl-2,4′-diphenol]
purity before the stress test [1]: 99.86% | purity after the high humidity test [1]: 99.59% | purity after the high temperature test [1]: 99.36% | purity after intense light / high-light irradiation test [1]: 99.31% | solubility [2]: 0.04812 mg/mL (≈ 181 µM)
